Patent US8063051B2, “9-substituted-8-oxo-adenine compounds as toll-like receptor (TLR7) modulators” (AstraZeneca AB, priority 2007, dated 2011)

Target: T1, Recombinant human TLR7 (Homo sapiens, UniProt Q9NYK1)
T1 construct: expressed in transfected cells; host or cells: HEK293 cell line stably expressing the pNiFty2-SEAP reporter plasmid; TLR7 in vector pUNO, blasticidin selection
T1 sequence (Q9NYK1 27-1049): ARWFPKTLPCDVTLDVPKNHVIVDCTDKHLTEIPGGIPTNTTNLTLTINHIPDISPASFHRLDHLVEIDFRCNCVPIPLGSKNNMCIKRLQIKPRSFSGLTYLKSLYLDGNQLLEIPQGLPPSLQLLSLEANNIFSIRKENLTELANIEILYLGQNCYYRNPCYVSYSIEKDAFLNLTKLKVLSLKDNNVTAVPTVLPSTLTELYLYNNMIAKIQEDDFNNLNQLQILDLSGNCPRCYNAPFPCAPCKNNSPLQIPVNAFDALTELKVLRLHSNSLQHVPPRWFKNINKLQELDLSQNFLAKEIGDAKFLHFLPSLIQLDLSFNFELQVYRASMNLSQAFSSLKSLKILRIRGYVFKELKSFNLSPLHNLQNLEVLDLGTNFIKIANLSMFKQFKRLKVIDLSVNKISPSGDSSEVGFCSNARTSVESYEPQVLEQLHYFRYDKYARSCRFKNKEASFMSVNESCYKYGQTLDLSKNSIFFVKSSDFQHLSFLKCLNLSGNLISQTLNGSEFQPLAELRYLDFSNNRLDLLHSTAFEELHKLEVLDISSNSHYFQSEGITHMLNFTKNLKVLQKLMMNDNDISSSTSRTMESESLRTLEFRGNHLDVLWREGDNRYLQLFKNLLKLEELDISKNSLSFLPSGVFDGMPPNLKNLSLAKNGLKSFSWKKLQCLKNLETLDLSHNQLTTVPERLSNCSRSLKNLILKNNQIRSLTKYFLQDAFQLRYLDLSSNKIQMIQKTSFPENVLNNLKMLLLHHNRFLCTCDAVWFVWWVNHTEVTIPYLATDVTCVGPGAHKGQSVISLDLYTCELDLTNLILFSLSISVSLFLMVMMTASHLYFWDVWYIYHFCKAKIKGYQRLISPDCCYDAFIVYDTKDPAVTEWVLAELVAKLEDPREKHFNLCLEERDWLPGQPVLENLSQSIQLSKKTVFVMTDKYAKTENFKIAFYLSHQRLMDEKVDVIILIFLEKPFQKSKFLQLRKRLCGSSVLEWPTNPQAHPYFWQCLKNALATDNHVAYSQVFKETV
Experiment: Human TLR7 assay (SEAP reporter in HEK293 cells)
Type: cell-based
Conditions: HEK293 cell line stably expressing human TLR7 and pNiFty2-SEAP reporter; SEAP induction after overnight incubation at 37° C., 0.1% (v/v) DMSO
Source text: Recombinant human TLR7 was stably expressed in a HEK293 cell line already stably expressing the pNiFty2-SEAP reporter plasmid; integration of the reporter gene was maintained by selection with the antibiotic zeocin. The most common variant sequence of human TLR7 (represented by the EMBL sequence AF240467) was cloned into the mammalian cell expression vector pUNO and transfected into this reporter cell-line. Transfectants with stable expression were selected using the antibiotic blasticidin. In this reporter cell-line, expression of secreted alkaline phosphatase (SEAP) is controlled by an NFkB/ELAM-1 composite promoter comprising five NFkB sites combined with the proximal ELAM-1 promoter. TLR signaling leads to the translocation of NFkB and activation of the promoter results in expression of the SEAP gene. TLR7-specific activation was assessed by determining the level of SEAP produced following overnight incubation of the cells at 37° C. with the standard compound in the presence of 0.1% (v/v) dimethylsulfoxide (DMSO). Concentration dependent induction of SEAP production by compounds was expressed as the concentration of compound which produced half of the maximal level of SEAP induction for that compound (pEC50).

Compound	EC50 [nM]
CCCCOc1nc(N)c2[nH]c(=O)n(CCCN(Cc3ccccc3)C(C)=O)c2n1 [Example 1, N-[3-(6-Amino-2-butoxy-8-oxo-7,8-dihydro-9H-purin-9-yl)propyl]-N-benzylacetamide]	63.1
CCCCOc1nc(N)c2[nH]c(=O)n(CCCN(Cc3ccccc3)C(=O)COC)c2n1 [Example 2, N-[3-(6-Amino-2-butoxy-8-oxo-7,8-dihydro-9H-purin-9-yl)propyl]-N-benzyl-2-methoxyacetamide]	50.1
CCCCOc1nc(N)c2[nH]c(=O)n(CCCN(Cc3ccccc3)C(=O)CCC(=O)OC)c2n1 [Example 3, Methyl 4-[[3-(6-amino-2-butoxy-8-oxo-7,8-dihydro-9H-purin-9-yl)propyl](benzyl)amino]-4-oxobutanoate]	39.8
CCCCOc1nc(N)c2[nH]c(=O)n(CCCN(Cc3ccccc3)C(=O)CCOC)c2n1 [Example 4, N-[3-(6-Amino-2-butoxy-8-oxo-7,8-dihydro-9H-purin-9-yl)propyl]-N-benzyl-3-methoxypropanamide]	79.4
CCCCOc1nc(N)c2[nH]c(=O)n(CCCN(Cc3ccccc3)C(=O)CCC(=O)N(C)C)c2n1 [Example 5, N-[3-(6-Amino-2-butoxy-8-oxo-7,8-dihydro-9H-purin-9-yl)propyl]-N-benzyl-N′,N′-dimethylsuccinamide]	79.4
CCCCOc1nc(N)c2[nH]c(=O)n(CCCN(Cc3ccccc3)C(=O)Cc3ccc(S(C)(=O)=O)cc3)c2n1 [Example 6, N-[3-(6-Amino-2-butoxy-8-oxo-7,8-dihydro-9H-purin-9-yl)propyl]-N-benzyl-2-[4-(methylsulfonyl)phenyl]acetamide]	79.4
CCCCOc1nc(N)c2[nH]c(=O)n(CCCN(Cc3ccccc3)C(=O)CN3CCN(Cc4ccccc4)CC3)c2n1 [Example 7, N-[3-(6-Amino-2-butoxy-8-oxo-7,8-dihydro-9H-purin-9-yl)propyl]-N-benzyl-2-(4-benzylpiperazin-1-yl)acetamide]	7.94
CCCCOc1nc(N)c2[nH]c(=O)n(CCCN(Cc3ccccc3)C(=O)Cn3nc(C)nc3C)c2n1 [Example 8, N-[3-(6-Amino-2-butoxy-8-oxo-7,8-dihydro-9H-purin-9-yl)propyl]-N-benzyl-2-(3,5-dimethyl-1H-1,2,4-triazol-1-yl)acetamide]	158
CCCCOc1nc(N)c2[nH]c(=O)n(CCCN(Cc3ccccc3)C(=O)CCc3cnccn3)c2n1 [Example 9, N-[3-(6-Amino-2-butoxy-8-oxo-7,8-dihydro-9H-purin-9-yl)propyl]-N-benzyl-3-pyrazin-2-ylpropanamide]	50.1
CCCCOc1nc(N)c2[nH]c(=O)n(CCCN(Cc3ccccc3)C(=O)CCN(C)C)c2n1 [Example 10, N-[3-(6-Amino-2-butoxy-8-oxo-7,8-dihydro-9H-purin-9-yl)propyl]-N-benzyl-N^3,N^3-dimethyl-β-alaninamide]	31.6
